Data published in US20240342198A1, “TREATMENT OF IR[…] SUBJECTS WITH AUTISM SPECTRUM DISORDERS WITH MODERATE TO SEVERE ANXIETY AND/OR SOCIAL AVOIDANCE” (ZYNERBA PHARMACEUTICALS, INC., priority 2021, published 2024).

Key:
[1] = tested on: children and adolescents with autism spectrum disorder; test: BRIGHT study: open-label safety, tolerability and efficacy study of ZYN002 transdermal gel, 14 weeks; type: in vivo, human; conditions: subgroup comparison
Procedure: An exploratory open-label safety, tolerability and efficacy study of Zygel™ ZYNO02 transdermal gel to 37 children and adolescents with autism spectrum disorder was conducted. The patient population (ages 4 through 17 years old) were predominantly moderate-to-severe ASD patients. ASD was confirmed by Diagnostic and Statistical Manual of Mental Disorders, 5th edition (DSM-5) diagnostic criteria to assess the safety and efficacy of ZYNO02 in treating ASD-related behaviors as measured by a variety of efficacy assessments. These included the Aberrant Behavior Checklist-Community (ABC-C); the Autism Diagnostic Observation Schedule®, 2nd Edition (ADOS-2); and the Parent Rated Anxiety Scale-Autism Spectrum Disorder (PRAS-ASD). ZYNO02 was administered to patients with moderate-to-severe symptoms of ASD as add-on therapy to their standard of care.
The majority of the patients were male (92%) with a mean age of 9.2 years. […] The majority of patients had moderate or severe ASD at baseline as measured by the ADOS®-2 comparison score (94%) and Diagnostic and Statistical Manual of Mental Disorders, 5th edition, severity levels (92%). […]
The trial evaluated multiple efficacy assessments, including the ABC-C, PRAS-ASD, Autism Parenting Stress Index, Autism Impact Measure (AIM), and Clinical Global Impression-Severity (CGI-S) and Improvement (CGI-I). […]

[2] = tested on: patients with FXS and comorbid ASD; test: Pooled placebo-controlled data: Week 12 change in ABC-C Irritability, 156 subjects; type: in vivo, human; conditions: subgroup comparison
From the text: The data collected from the studies presented herein, and other similar studies were pooled together and analyzed. […] The subjects had moderate to severe symptoms of ASD (ADOS-2, comparison score greater than, or equal to, 5). The data presented in Table 2 is the Week 12 change in ABC-C Irritability of all patients. In previous studies (such as presented in Example 1, Table 1) the data was enriched by removing the non-completers from the analysis and only presenting data from the completers.

C=C(C)C1CCC(C)=CC1c1c(O)cc(CCCCC)cc1O (centres unmarked) [CBD, 2-[3-methyl-6-(1-methylethenyl)-2-cyclohexen-1-yl]-5-pentyl-1,3-benzenediol]
improvement in irritability, PRAS score > 37 compared to ≤ 37 [1]: twice as much improvement in irritability | improvement in irritability, ABC-CFXS Social Avoidance score > 7 compared to ≤ 7 [2]: twice as much improvement in irritability
